Test system: Mycobacterium tuberculosis
Experiment: Antituberculosis activity against Mycobacterium tuberculosis H37Rv ATCC 27294 by modified BACTEC 460 method
Assay type: functional, organism-based
Conditions: for IC90 / IC50: Mycobacterium tuberculosis, H37Rv ATCC 27294

SMILES: Oc1ccc(-c2cc(-c3cn(-c4ccccc4)nc3-c3ccc(F)cc3)[nH]c(=S)n2)cc1
- pIC90: <3.64
- IC90: > 227 µM
- IC50 (read-out: IC50): 69.2 µM
- IC50 (read-out: pIC50 (converted)): 69.2 µM

SMILES: Nc1ccc(C2=NN[C@@H](c3cn(-c4ccccc4)nc3-c3ccc(F)cc3)C2)cc1
- pIC90: 3.9
- IC90: 127 µM
- IC50 (read-out: IC50): 74.4 µM
- IC50 (read-out: pIC50 (converted)): 74.1 µM

SMILES: Fc1ccc(-c2nn(-c3ccccc3)cc2[C@H]2CC(c3ccc(Cl)cc3)=NN2)cc1
- pIC90: 4.16
- IC90: 68.7 µM
- IC50 (read-out: IC50): 43.3 µM
- IC50 (read-out: pIC50 (converted)): 43.7 µM

SMILES: O=C(/C=C/c1cn(-c2ccccc2)nc1-c1ccc(F)cc1)c1ccc([N+](=O)[O-])cc1
- pIC90: 4.27
- IC90: 53.5 µM
- IC50 (read-out: IC50): 12.7 µM
- IC50 (read-out: pIC50 (converted)): 12.6 µM

SMILES: O=C(c1ccccc1)N1N=C(c2ccc(Br)cc2)C[C@@H]1c1cn(-c2ccccc2)nc1-c1ccc(F)cc1
- pIC90: 4.12
- IC90: 75.7 µM
- IC50 (read-out: IC50): 37.8 µM
- IC50 (read-out: pIC50 (converted)): 38 µM

SMILES: O=[N+]([O-])c1ccc(-c2cc(-c3cn(-c4ccccc4)nc3-c3ccc(F)cc3)[nH]c(=S)n2)cc1
- pIC90: 4.88
- IC90: 13.1 µM
- IC50 (read-out: IC50): 12.2 µM
- IC50 (read-out: pIC50 (converted)): 12 µM

SMILES: Nc1nc(-c2ccc(O)cc2)cc(-c2cn(-c3ccccc3)nc2-c2ccc(F)cc2)n1
- pIC90: 6.05
- IC90: 0.88 µM
- IC50 (read-out: IC50): 0.47 µM
- IC50 (read-out: pIC50 (converted)): 0.468 µM

SMILES: O=NN1N=C(c2cccs2)C[C@@H]1c1cn(-c2ccccc2)nc1-c1ccc(F)cc1
- pIC90: 4.33
- IC90: 46.3 µM
- IC50 (read-out: IC50): 26.4 µM
- IC50 (read-out: pIC50 (converted)): 26.3 µM

SMILES: O=NN1N=C(c2cccc([N+](=O)[O-])c2)C[C@@H]1c1cn(-c2ccccc2)nc1-c1ccc(F)cc1
- pIC90: 4.48
- IC90: 33.4 µM
- IC50 (read-out: IC50): 22.5 µM
- IC50 (read-out: pIC50 (converted)): 22.4 µM

SMILES: Oc1ccc(C2=NN[C@@H](c3cn(-c4ccccc4)nc3-c3ccc(F)cc3)C2)cc1
- pIC90: 4.3
- IC90: 49.8 µM
- IC50 (read-out: IC50): 31 µM
- IC50 (read-out: pIC50 (converted)): 30.9 µM

SMILES: Cc1ccc(C(=O)/C=C/c2cn(-c3ccccc3)nc2-c2ccc(F)cc2)cc1
- pIC90: 5.1
- IC90: 7.96 µM
- IC50 (read-out: IC50): 7.18 µM
- IC50 (read-out: pIC50 (converted)): 7.24 µM

SMILES: Nc1ccc(-c2cc(-c3cn(-c4ccccc4)nc3-c3ccc(F)cc3)nc(N)n2)cc1
- pIC90: 4.82
- IC90: 15 µM
- IC50 (read-out: IC50): 13.8 µM
- IC50 (read-out: pIC50 (converted)): 13.8 µM

SMILES: COc1ccc(C2=NN[C@@H](c3cn(-c4ccccc4)nc3-c3ccc(F)cc3)C2)cc1
- pIC90: 4.91
- IC90: 12.3 µM
- IC50 (read-out: IC50): 0.47 µM
- IC50 (read-out: pIC50 (converted)): 0.468 µM

SMILES: O=[N+]([O-])c1cccc(C2=NN[C@@H](c3cn(-c4ccccc4)nc3-c3ccc(F)cc3)C2)c1
- pIC90: 4.16
- IC90: 68.7 µM
- IC50 (read-out: IC50): 39 µM
- IC50 (read-out: pIC50 (converted)): 38.9 µM

SMILES: Nc1ccc(C2=NN(N=O)[C@@H](c3cn(-c4ccccc4)nc3-c3ccc(F)cc3)C2)cc1
- pIC90: 4.42
- IC90: 37.8 µM
- IC50 (read-out: IC50): 20.9 µM
- IC50 (read-out: pIC50 (converted)): 20.9 µM

SMILES: Nc1ccc(-c2cc(-c3cn(-c4ccccc4)nc3-c3ccc(F)cc3)[nH]c(=S)n2)cc1
- pIC90: <3.64
- IC90: > 228 µM
- IC50 (read-out: IC50): 22.1 µM
- IC50 (read-out: pIC50 (converted)): 21.9 µM

SMILES: O=C(/C=C/c1cn(-c2ccccc2)nc1-c1ccc(F)cc1)c1ccccc1
- pIC90: 4.79
- IC90: 16.3 µM
- IC50 (read-out: IC50): 10.5 µM
- IC50 (read-out: pIC50 (converted)): 10.5 µM

SMILES: Oc1ccccc1C1=NN[C@@H](c2cn(-c3ccccc3)nc2-c2ccc(F)cc2)C1
- pIC90: 4.5
- IC90: 31.7 µM
- IC50 (read-out: IC50): 28.1 µM
- IC50 (read-out: pIC50 (converted)): 28.2 µM

SMILES: Nc1nc(-c2ccc(Br)cc2)cc(-c2cn(-c3ccccc3)nc2-c2ccc(F)cc2)n1
- pIC90: 4.84
- IC90: 14.5 µM
- IC50 (read-out: IC50): 10.6 µM
- IC50 (read-out: pIC50 (converted)): 10.7 µM

SMILES: O=C(c1ccccc1)N1N=C(c2ccc(Cl)cc2)C[C@@H]1c1cn(-c2ccccc2)nc1-c1ccc(F)cc1
- pIC90: <3.72
- IC90: > 192 µM
- IC50 (read-out: IC50): 51.4 µM
- IC50 (read-out: pIC50 (converted)): 51.3 µM

SMILES: Oc1ccccc1-c1cc(-c2cn(-c3ccccc3)nc2-c2ccc(F)cc2)[nH]c(=S)n1
- pIC90: 4.95
- IC90: 11.2 µM
- IC50 (read-out: IC50): 8.29 µM
- IC50 (read-out: pIC50 (converted)): 8.32 µM

SMILES: O=C(c1ccccc1)N1N=C(c2ccccc2)C[C@@H]1c1cn(-c2ccccc2)nc1-c1ccc(F)cc1
- pIC90: 4.06
- IC90: 86.4 µM
- IC50 (read-out: IC50): 50.4 µM
- IC50 (read-out: pIC50 (converted)): 50.1 µM

SMILES: O=NN1N=C(c2ccccc2O)C[C@@H]1c1cn(-c2ccccc2)nc1-c1ccc(F)cc1
- pIC90: <3.63
- IC90: > 234 µM
- IC50 (read-out: IC50): 119 µM
- IC50 (read-out: pIC50 (converted)): 117 µM

SMILES: O=NN1N=C(c2ccc(Br)cc2)C[C@@H]1c1cn(-c2ccccc2)nc1-c1ccc(F)cc1
- pIC90: 4.47
- IC90: 33.7 µM
- IC50 (read-out: IC50): 21.4 µM
- IC50 (read-out: pIC50 (converted)): 21.4 µM

SMILES: O=C(/C=C/c1cn(-c2ccccc2)nc1-c1ccc(F)cc1)c1cccs1
- pIC90: 4.87
- IC90: 13.5 µM
- IC50 (read-out: IC50): 8.08 µM
- IC50 (read-out: pIC50 (converted)): 8.13 µM
